Measured values from publication PMC6502086 (Molecular Biology and Evolution, 2019).

Target: T1, Or22a (Or22a^1; ab3A-1 neurons) (Drosophila melanogaster, UniProt P81909)
T1 sequence (P81909 1-397): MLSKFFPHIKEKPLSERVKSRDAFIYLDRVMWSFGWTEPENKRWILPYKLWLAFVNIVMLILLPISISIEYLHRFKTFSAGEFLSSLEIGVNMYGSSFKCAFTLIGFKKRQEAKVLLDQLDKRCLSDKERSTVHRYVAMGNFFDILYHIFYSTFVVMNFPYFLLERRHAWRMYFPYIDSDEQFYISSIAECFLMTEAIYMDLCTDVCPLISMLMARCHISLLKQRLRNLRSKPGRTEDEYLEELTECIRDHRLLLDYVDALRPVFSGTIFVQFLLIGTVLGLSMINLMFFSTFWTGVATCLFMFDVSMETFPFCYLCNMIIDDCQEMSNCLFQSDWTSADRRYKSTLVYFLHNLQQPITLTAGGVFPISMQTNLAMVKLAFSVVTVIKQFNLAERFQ
T1 sequence (Q9VNB5 1-486 partner): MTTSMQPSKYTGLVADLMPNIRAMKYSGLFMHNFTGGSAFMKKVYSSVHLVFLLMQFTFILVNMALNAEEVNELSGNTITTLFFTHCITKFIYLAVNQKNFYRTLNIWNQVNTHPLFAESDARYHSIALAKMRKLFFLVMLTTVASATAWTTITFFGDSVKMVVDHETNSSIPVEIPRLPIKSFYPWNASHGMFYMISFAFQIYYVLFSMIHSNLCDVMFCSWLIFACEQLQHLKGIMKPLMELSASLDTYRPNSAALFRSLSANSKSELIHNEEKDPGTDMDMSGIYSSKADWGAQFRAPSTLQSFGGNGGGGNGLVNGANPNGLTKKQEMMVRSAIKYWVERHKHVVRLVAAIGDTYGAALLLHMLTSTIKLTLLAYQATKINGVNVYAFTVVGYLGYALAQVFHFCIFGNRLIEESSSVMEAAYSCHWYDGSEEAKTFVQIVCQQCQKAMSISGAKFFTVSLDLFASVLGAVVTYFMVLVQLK
Assay: single-sensillum recording, transgene in empty ab3A neuron

| SMILES | spikes/s (odorant at 10^−2 v/v in paraffin oil) | spikes/s (odorant at 10^−4 v/v in paraffin oil) |
| --- | --- | --- |
| CCOC(=O)C(C)CC (centres unmarked) [ethyl 2-methyl butanoate] | flies expressing Or22ab have decreased responses to ethyl hexanoate, methyl hexanoate, and ethyl 2-methyl butanoate |  |
| CCCCCC(=O)OC [methyl hexanoate] |  | flies expressing Or22ab have decreased responses to ethyl hexanoate, methyl hexanoate, and ethyl 2-methyl butanoate |
